From patent US20230117034A1, “PYRAZOLOTRIAZINES” (Bayer Aktiengesellschaft, priority 2019, published 2023)
Where two headings read alike, the source gives them in different places.

How the values were obtained:
[1] = test system: Human tumour cells (cell line panel); test: Proliferation assay: cell line panel (crystal violet, 4 days); type: cell-based; details: read-out: Result Category, IC50 (mean)
Source text: Human tumour cells were originally obtained from the American Type Culture Collection (ATCC), from Cell Line Services GmbH (CLS), from the Deutsche Sammlung von Mikroorganismen und Zellkulturen (DSMZ, German Collection of Microorganisms and Cell Cultures), from the Japanese Cancer Research Resources Bank (JCRB), from Public Health England, from the European Collection of Authenticated Cell Cultures (ECACC), from Asterand Biosciences, or from the National Cancer Institute (NCI). Cultivated tumour cells were plated at the density as indicated in Table 6 in 96-well multititer plates in 200 microL of their respective growth medium supplemented 10% fetal calf serum. After 24 hours, the cells of one plate (zero-point plate) were stained with crystal violet (see below), while the medium of the other plates was supplemented with the test substances in various concentrations (0 micromol/L, as well as in the range of 0.003-3 micromol/L; the final concentration of the solvent dimethyl sulfoxide was adjusted to 0.1%) using a Tecan HP D300 Digital Dispenser. The cells were incubated for 4 days in the presence of test substances. Cell proliferation was determined by staining the cells with crystal violet: the cells were fixed by adding 20 microL/measuring point of an 11% glutaric aldehyde solution for 15 minutes at room temperature. After three washing cycles of the fixed cells with water, the plates were dried at room temperature. The cells were stained by adding 100 microL/measuring point of a 0.1% crystal violet solution (pH 3.0). After three washing cycles of the stained cells with water, the plates were dried at room temperature. The dye was dissolved by adding 100 microL/measuring point of a 10% acetic acid solution. The extinction was determined by photometry at a wavelength of 595 nm. The change of cell number, in percent, was calculated by normalization of the measured values to the extinction values of the zero-point plate (=0%) and the extinction of the untreated (0 μM) cells (=100%). The […] values (inhibitory concentration at 50% of maximal effect) were determined by means of a 4 parameter fit.

[2] = test system: BRCA1 mRNA expression in CAL-120 cells; test: qRT-PCR assay: BRCA1 mRNA expression in CAL-120; type: cell-based; details: Homo sapiens; Inhibition of BRCA1 mRNA expression in CAL-120 cells; median; read-out: RTqPCR-CAL-120, IC50, BRCA1 (median)
Method: 3. qRT-PCR Assay: BRCA, ATR, MCL1 in MDA-MB-231, CAL-120
Tissue cultured human MDA-MB-231 human breast cancer cells were plated in 500 microL per well at 200,000 cells/well in a 24 well microtiter plate. After 24 h, the cells were exposed continuously for 24 h to test substances (substances were added with Tecan HP 0300 Dispenser). RNA was prepared using Qiagen RNeasy MiniKit (#74106), RNA was quantified using a NanoDrop Equipment, and 600 nano gamms of RNA was coverted to cDNA using a SuperScript VILO kit (Thermofisher #11755050) followed by qPCR amplification. BRCA1 and ATR gene expression was measured by RT-qPCR and normalised to GAPDH housekeeping gene expression. qPCR primer sets have been purchased from Thermo Fisher Scientific/Applied Biosystems: BRCA1, #Hs 01556193; ATR, #Hs 00992123; GAPDH, #Hs 03929097.

Measured: IC50

Brc1cnn2c(NCc3nc4ccccc4[nH]3)nc(N3CCOCC3)nc12 [Example 4, N-[(1H-benzimidazol-2-yl)methyl]-8-bromo-2-(morpholin-4-yl)pyrazolo[1,5-a][1,3,5]triazin-4-amine]
7.06 nM: [2]
≥ 100 nM: [1]; COV318, ovarian cancer, 4000 cells/well | [1]; COV362, ovarian cancer, 4000 cells/well | [1]; DU-145, DU145, prostate cancer, 3000 cells/well | [1]; HCC1419, breast cancer, HER2 positive, 4000 cells/well | [1]; HCC1599, breast cancer, triple-negative, 5000 cells/well | [1]; HCC1806, breast cancer, triple-negative, 4000 cells/well | [1]; HCC1937, breast cancer, triple-negative, 5000 cells/well | [1]; HCT-116, HCT116, colorectal cancer, 3000 cells/well | [1]; HT-144, melanoma, 4000 cells/well | [1]; HUH-6clone5, liver cancer, 4000 cells/well | [1]; MCF7, breast cancer, 4000 cells/well | [1]; NCI-H460, lung cancer, non-small cell, 3000 cells/well | [1]; NCI-H2405, lung cancer, non-small cell, 4000 cells/well | [1]; SK-OV-3, ovarian cancer, 4000 cells/well
≤ 30 nM: [1]; A673, sarcoma, 5000 cells/well | [1]; AU565, breast cancer, HER2 positive, 4000 cells/well | [1]; BT-474, BT474, breast cancer, HER2 positive, 4000 cells/well | [1]; BT-549, BT549, breast cancer, 4000 cells/well | [1]; CAL-120, breast cancer, triple-negative, 4000 cells/well | [1]; HCC202, breast cancer, HER2 positive, 5000 cells/well | [1]; HCC1143, breast cancer, triple-negative, 4000 cells/well | [1]; HCC1954, breast cancer, HER2 positive, 4000 cells/well | [1]; HCC2157, breast cancer, triple-negative, 5000 cells/well | [1]; HT-29, HT29, colorectal cancer, 2000 cells/well | [1]; HUH-7, liver cancer, 4000 cells/well | [1]; JHH7, JHH-7, liver cancer, 4000 cells/well | [1]; JIMT-1, JIMT1, breast cancer, HER2 positive, 4000 cells/well | [1]; MDA-MB-231, breast cancer, triple-negative, 4000 cells/well | [1]; MDA-MB-436, breast cancer, triple-negative, 4000 cells/well | [1]; MDA-MB-468, breast cancer, triple-negative, 4000 cells/well | [1]; NCI-H1734, lung cancer, non-small cell, 5000 cells/well | [1]; NCI-H1838, lung cancer, non-small cell, 4000 cells/well | [1]; NCI-H2029, lung cancer, small cell, 5000 cells/well | [1]; NCI-H2030, lung cancer, non-small cell, 4000 cells/well | [1]; NCI-N87, gastric cancer, 4000 cells/well | [1]; PLC/PRF/5, liver cancer, 4000 cells/well | [1]; SK-BR-3, breast cancer, HER2 positive, 5000 cells/well | [1]; SK-HEP1, SK-HEP-1, liver cancer, 4000 cells/well | [1]; SUM149, breast cancer, triple-negative, 4000 cells/well | [1]; SW480, colorectal cancer, 3000 cells/well | [1]; SW-620, SW620, colorectal cancer, 3000 cells/well | [1]; U2OS, U2-OS, sarcoma, 5000 cells/well
30 to 100 nM: [1]; Calu-3, lung cancer, non-small cell, 4000 cells/well | [1]; DLD-1, DLD1, colorectal cancer, 4000 cells/well | [1]; DMS-79, DMS79, lung cancer, small cell, 5000 cells/well | [1]; EFM-192A, EFM192A, breast cancer, HER2 positive, 4000 cells/well | [1]; HCC70, breast cancer, triple-negative, 5000 cells/well | [1]; HCC366, lung cancer, non-small cell, 4000 cells/well | [1]; HeLa, cervical cancer, 3000 cells/well | [1]; JHH-4, liver cancer, 4000 cells/well | [1]; KYSE−410, estophageal cancer, 4000 cells/well | [1]; LNCap, prostate cancer, 5000 cells/well | [1]; Lovo, colorectal cancer, 4000 cells/well | [1]; MDA-MB-361, breast cancer, HER2 positive, 5000 cells/well | [1]; MKN-1, MKN1, gastric cancer, 4000 cells/well | [1]; NCI-H23, lung cancer, non-small cell, 3000 cells/well | [1]; NCI-H69, lung cancer, small cell, 4000 cells/well | [1]; NCI-H82, lung cancer, small cell, 4000 cells/well | [1]; NCI-H345, lung cancer, small cell, 5000 cells/well | [1]; NCI-H446, lung cancer, small cell, 4000 cells/well | [1]; NCI-H526, lung cancer, small cell, 4000 cells/well | [1]; NCI-H1155, lung cancer, non-small cell, 4000 cells/well | [1]; NCI-H1299, lung cancer, non-small cell, 4000 cells/well | [1]; NCI-H1623, lung cancer, non-small cell, 5000 cells/well | [1]; NCI-H1793, lung cancer, non-small cell, 5000 cells/well | [1]; NCI-H1836, lung cancer, small cell, 5000 cells/well | [1]; NCI-H1975, lung cancer, non-small cell, 3000 cells/well | [1]; NCI-H2009, lung cancer, non-small cell, 5000 cells/well | [1]; OVCAR-3, OVCAR3, ovarian cancer, 5000 cells/well | [1]; OVCAR-8, OVCAR8, ovarian cancer, 4000 cells/well | [1]; PC-3, prostate cancer, 3000 cells/well | [1]; SNU-449, SNU449, liver cancer, 4000 cells/well | [1]; U-251, U251MG, glioblastoma, 3000 cells/well
